Reference: patent publication US4873253A, “Phenylalanine derivative and proteinase inhibitor” (Okamoto; Shosuke, priority 1987, dated 1989)
Counter-ions that a name gives are not always drawn. Like-named read-outs stand apart in the source and are kept apart here.

What was measured:
human urokinase = human urokinase (Homo sapiens, UniProt P00749); test: biochemical; details: read-out: Urokinase S-2444 I50
Method: Determination of inhibition activity for S-2444 decomposition
(§1) An inhibitor sample is dissolved in a 0.05 M Tris-hydrochloric acid buffer solution (pH=8.8) to make the total volume to 400 μl. To this solution, 50 μl of a 1 mM S-2444 solution is added and the mixture is incubated at a temperature of 37° C. for 5 minutes in a constant temperature bath. Then, 50 μl of a 500 unit/ml human urokinase is added and the mixture is incubated at a temperature of 37° C. for 5 minutes. Thereafter, 50 μl of 50% acetic acid is added to terminate the reaction. The absorbance of the p-nitroaniline formed in the reaction mixture is measured at 405 nm. Thus, the concentration I50 (μmol) of the inhibitor sample, at which the absorbance is one half (i.e., 1/2) of that obtained in the absence of the inhibitor sample, is determined.

human plasmin [1] = biological target: T1, human plasmin (Homo sapiens, UniProt P00747); test: Antiplasmin activity: inhibition of fibrin decomposition; format: biochemical; details: Table 2, pH 7.4, 37° C., read-out: Plasmin Fibrin I50 (concentration doubling fibrin dissolution time)
Method: (i) Determination of inhibition activity for fibrin decomposition
An inhibitor sample is dissolved in a 0.18 M borate-physiological salt buffer solution (pH=7.4) to make the total volume to 600 μl. To this buffer solution, 200 μl of a 0.2% bovine fibrinogen, 100 μl of a 0.3 casein unit/ml human plasmin solution, and 100 μl of a 50 unit/ml bovine thrombin solution, all dissolved in the above-mentioned buffer, are added at a temperature of 37° C. in a constant temperature bath. Then, the dissolution time of the fibrin mass formed above is determined.

human plasma kallikrein = human plasma kallikrein (Homo sapiens, UniProt P03952); test: Anti-plasma kallikrein activity: inhibition of S-2302 decomposition; format: biochemical; details: Table 2; substrate S-2302, pH 7.8, 37° C.; read-out: Plasma Kallikrein S-2302 I50
Method: Determination of inhibition activity for S-2302 decomposition
as §1, with “solution (pH=7.8)” for “solution (pH=8.8)”, “a 2” for “a 1”, “mM S-2302” for “mM S-2444”, “a 0.12” for “a 500”, “human plasma kallikrein” for “human urokinase”

bovine thrombin = biological target: T2, bovine thrombin (Bos taurus, UniProt P00735); test: Antithrombin activity: inhibition of fibrin formation (fibrinogen); format: biochemical
T2 construct: a 0.2 unit/ml bovine thrombin solution
Method: (i) Determination of inhibition activity against fibrin formation
An inhibitor sample is dissolved in a 0.18 M borate-physiological salt buffer solution (pH= 7.4) to make the total volume to 500 μl. […] Thus, a coagulation time is determined. The inhibitor concentration I50 (μmol), at which the coagulation time obtained in the absence of the inhibitor is extended twice, is determined.

bovine trypsin = biological target: T3, bovine trypsin (Bos taurus, UniProt P00760); test: Antitrypsin activity: inhibition of S-2238 decomposition; format: biochemical; details: Table 2; substrate S-2238, pH 8.1, 37° C.; read-out: Trypsin S-2238 I50
T3 sequence (P00760 24-246): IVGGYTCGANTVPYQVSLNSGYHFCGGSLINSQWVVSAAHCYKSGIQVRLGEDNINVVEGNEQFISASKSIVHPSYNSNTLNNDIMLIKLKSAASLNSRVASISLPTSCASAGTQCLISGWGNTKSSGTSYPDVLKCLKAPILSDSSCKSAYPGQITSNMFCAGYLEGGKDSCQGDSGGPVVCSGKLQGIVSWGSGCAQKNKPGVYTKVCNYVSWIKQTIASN
Method: Determination of inhibition activity against S-2238 decomposition
An inhibitor sample is dissolved in a 0.05 M Tris-imidazole buffer solution (pH=8.1) and 125 μl of a 1 mM S-2238 solution is added to make the total volume to 1.20 ml. The mixture is incubated at a temperature of 37° C. for 5 minutes in a constant temperature bath. To this mixture, 0.05 ml of bovine trypsin is added and the absorbance, at 405 nm, of the p-nitroaniline formed per minute is determined at a temperature of 37° C. by using the so-called initial velocity method. Thus, the concentration I50 (μmol) of a inhibitor sample, at which the absorbance is one half (i.e., 1/2) of that obtained in the absence of the inhibitor sample, is determined.

human plasmin [2] = biological target: T1, human plasmin; test: Antiplasmin activity: inhibition of S-2251 decomposition; format: biochemical; details: Table 2; substrate S-2251, pH 7.4, 37° C.
Method: An inhibitor sample is dissolved in a 0.05 M Tris-hydrochloric acid buffer solution (pH=7.4) to make the total volume to 400 μl. […] Then, 50 μl of a 0.2 casein unit/ml human plasmin is added and the mixture is incubated at a temperature of 37° C. for 4 minutes. Thereafter, the reaction is stopped by adding 50 μl of 50% acetic acid.
Thus, the concentration I50 (μmol) of the inhibitor sample, at which the absorbance is one half (i.e., 1/2) of that obtained in the absence of the inhibitor, is determined.

[3] = Table 2, substrate S-2444, pH 8.8, 37° C.
[4] = Table 2, bovine fibrinogen, pH 7.4, 37° C., read-out: Thrombin Fibrinogen I50 (concentration doubling coagulation time)

T1 sequence (P00747 581-810 limits assumed): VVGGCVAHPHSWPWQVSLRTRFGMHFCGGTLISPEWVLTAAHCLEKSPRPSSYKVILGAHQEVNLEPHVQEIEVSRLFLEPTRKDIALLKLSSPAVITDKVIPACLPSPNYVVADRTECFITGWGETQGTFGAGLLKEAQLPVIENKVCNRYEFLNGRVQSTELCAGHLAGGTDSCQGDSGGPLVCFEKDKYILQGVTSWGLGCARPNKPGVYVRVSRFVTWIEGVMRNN
T1 sequence (P00747 97-580 limits assumed): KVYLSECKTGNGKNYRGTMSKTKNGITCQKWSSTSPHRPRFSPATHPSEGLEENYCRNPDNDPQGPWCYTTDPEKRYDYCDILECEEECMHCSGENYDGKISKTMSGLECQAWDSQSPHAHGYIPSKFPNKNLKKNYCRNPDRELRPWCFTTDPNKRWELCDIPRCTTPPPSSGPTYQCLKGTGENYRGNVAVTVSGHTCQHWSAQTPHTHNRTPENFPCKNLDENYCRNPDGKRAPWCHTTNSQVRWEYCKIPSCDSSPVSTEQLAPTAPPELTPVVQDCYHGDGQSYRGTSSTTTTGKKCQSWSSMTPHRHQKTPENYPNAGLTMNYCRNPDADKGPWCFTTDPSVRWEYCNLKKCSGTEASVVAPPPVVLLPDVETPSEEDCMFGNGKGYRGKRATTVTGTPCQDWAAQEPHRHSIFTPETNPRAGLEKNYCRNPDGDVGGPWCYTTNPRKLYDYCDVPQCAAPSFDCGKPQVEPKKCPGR
Chain of human plasma kallikrein (P03952 391-638 limits assumed): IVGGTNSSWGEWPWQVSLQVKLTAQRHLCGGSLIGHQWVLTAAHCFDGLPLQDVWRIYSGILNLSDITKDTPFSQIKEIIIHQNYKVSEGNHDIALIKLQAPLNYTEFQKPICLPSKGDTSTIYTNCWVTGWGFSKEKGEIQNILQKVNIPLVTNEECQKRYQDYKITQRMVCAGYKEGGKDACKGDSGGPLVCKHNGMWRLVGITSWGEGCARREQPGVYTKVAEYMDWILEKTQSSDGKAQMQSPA
Chain of human plasma kallikrein (P03952 20-390 limits assumed): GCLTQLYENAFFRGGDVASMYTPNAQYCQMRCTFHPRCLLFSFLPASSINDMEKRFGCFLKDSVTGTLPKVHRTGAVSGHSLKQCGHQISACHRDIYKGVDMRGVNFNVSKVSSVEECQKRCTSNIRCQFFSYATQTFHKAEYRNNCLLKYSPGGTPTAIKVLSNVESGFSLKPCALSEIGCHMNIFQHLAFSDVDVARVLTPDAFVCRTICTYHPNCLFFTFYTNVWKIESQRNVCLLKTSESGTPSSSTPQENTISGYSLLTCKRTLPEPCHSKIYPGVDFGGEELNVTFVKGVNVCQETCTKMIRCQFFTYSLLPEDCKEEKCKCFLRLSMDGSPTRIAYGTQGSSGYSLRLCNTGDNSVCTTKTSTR

| SMILES | IC50 (human urokinase; [3]) [µM] | IC50 (human plasmin [1]) [µM] | IC50 (human plasma kallikrein) [µM] | IC50 (bovine thrombin; [4]) [mM] | IC50 (bovine trypsin) [µM] | IC50 (human plasmin [2]) [µM] | IC50 (bovine thrombin) [mM] | IC50 (human urokinase) [µM] |
| --- | --- | --- | --- | --- | --- | --- | --- | --- |
| COCCCNC(=O)C(Cc1cccc(Oc2ccccc2)c1)NC(=O)[C@H]1CC[C@H](CN)CC1 (mixture of isomers) [Compound 14, N-(trans-4-amnomethylcyclohexylcarboonyl)-3-phenoxy-DL-phenylalanine 3-methoxypropylamide hydrochloride] | > 500 | 340 | 340 | > 0.5 | 100 | 940 |  |  |
| NC[C@H]1CC[C@H](C(=O)NC(Cc2cccc(Oc3ccccc3)c2)C(N)=O)CC1 (mixture of isomers) [Compound 21, N-(trans-4-aminomethylcyclohexylcarbonyl)-3-phenoxy-DL-phenylalanine amide hydrochloride] | > 1000 | 150 | > 400 |  | > 150 | 320 | > 0.2 |  |
| NC[C@H]1CC[C@H](C(=O)NC(Cc2cccc(C(F)(F)F)c2)C(=O)N2CCOCC2)CC1 (mixture of isomers) [Compound 29, N-(trans-4-aminomethylcyclohexylcarbonyl)-3-trifluoromethyl-DL-phenylalanine morpholinoamide hydrochloride] | > 1000 | > 1000 | > 1000 |  | > 150 | > 1000 | > 1 |  |
| NC[C@H]1CC[C@H](C(=O)NC(Cc2cccc(Oc3ccccc3)c2)C(=O)Nc2ccncn2)CC1 (mixture of isomers) [Compound 12, N-(trans-4-aminomethylcyclohexylcarbonyl)-3-phenoxy-DL-phenylalanine 4-pyrimidylamide dihydrochloride] | > 1000 | 130 | 55 | > 1 | > 150 | 1000 |  |  |
| COCCCNC(=O)C(Cc1cccc(Oc2ccc(Br)cn2)c1)NC(=O)[C@H]1CC[C@H](CN)CC1 (mixture of isomers) [Compound 25, N-(trans-4-aminomethylcyclohexylcarbonyl)-3-(5-bromo-2-pyridyloxy)-DL-phenylalanine 3-methoxypropylamide hydrochloride] | > 1000 | 450 | 500 | > 1 | > 150 | 490 |  |  |
| CCOC(=O)C(Cc1cccc(Oc2ccccc2)c1)NC(=O)[C@H]1CC[C@H](CN)CC1 (mixture of isomers) [Compound 57, N-(trans-4-aminomethylcyclohexylcarbonyl)-3-phenoxy-DL-phenylalanine ethyl ester hydrochloride] | 350 | 110 | 5.7 | > 1 | 25 | 260 |  |  |
| Cc1ccc(NC(=O)C(Cc2cccc(Oc3ccccc3)c2)NC(=O)[C@H]2CC[C@H](CN)CC2)cc1 (stereo partly drawn) [Compound 1] |  | 15 | 1.3 |  | 15 | 46 | > 0.1 | > 100 |
| CCOC(=O)c1cccc(NC(=O)C(Cc2cccc(Oc3ccccc3)c2)NC(=O)[C@H]2CC[C@H](CN)CC2)c1 (stereo partly drawn) [Compound 3] | > 100 | 11 | 1.2 | > 0.1 | 2.3 | 31 |  |  |
| NC[C@H]1CC[C@H](C(=O)NC(Cc2cccc(Oc3ccccc3)c2)C(=O)Nc2ccccn2)CC1 (stereo partly drawn) [Compound 6] | > 500 | 190 | 11 |  | > 15 | 360 | > 0.5 |  |
| NC[C@H]1CC[C@H](C(=O)NC(Cc2cccc(Oc3ccccc3)c2)C(=O)NCC(=O)c2ccccc2)CC1 (stereo partly drawn) [Compound 15] | > 100 | > 100 | > 200 | > 0.1 | > 150 | > 100 |  |  |
| COC(=O)[C@@H](C)NC(=O)C(Cc1cccc(Oc2ccccc2)c1)NC(=O)[C@H]1CC[C@H](CN)CC1 (stereo partly drawn) [Compound 16] | > 500 | > 1000 | > 1000 | > 1 | > 150 | > 1000 |  |  |
| NC[C@H]1CC[C@H](C(=O)NC(Cc2cccc(Oc3ccccc3)c2)C(=O)N2CCC(C(=O)O)CC2)CC1 (stereo partly drawn) [Compound 17] | > 500 | 570 | > 1000 | > 1 | > 150 | 1000 |  |  |
| CCOC(=O)C1CCN(C(=O)C(Cc2cccc(Oc3ccccc3)c2)NC(=O)[C@H]2CC[C@H](CN)CC2)CC1 (stereo partly drawn) [Compound 18] | > 1000 | > 100 | > 500 | > 0.1 | > 150 | 430 |  |  |
| NC[C@H]1CC[C@H](C(=O)NC(Cc2cccc(Oc3ccccc3)c2)C(=O)N2CCOCC2)CC1 (stereo partly drawn) [Compound 19] | > 1000 | > 1000 | > 1000 | > 1 | > 150 | > 1000 |  |  |
| COC(=O)[C@H]1CCCN1C(=O)C(Cc1cccc(Oc2ccccc2)c1)NC(=O)[C@H]1CC[C@H](CN)CC1 (stereo partly drawn) [Compound 20] | > 1000 | > 60 | > 1000 | > 1 | > 150 | > 100 |  |  |
| COCCCNC(=O)C(Cc1cccc(C(=O)c2ccccc2)c1)NC(=O)[C@H]1CC[C@H](CN)CC1 (stereo partly drawn) [Compound 23] | > 500 | 620 | 350 | > 1 | 8.2 | 750 |  |  |
| NC[C@H]1CC[C@H](C(=O)NC(Cc2cccc(C(=O)c3ccccc3)c2)C(=O)N2CCOCC2)CC1 (stereo partly drawn) [Compound 24] | > 1000 | 700 | > 1000 | > 1 | > 150 | > 1000 |  |  |
| CCOC(=O)C1CCCCN1C(=O)C(Cc1cccc(Oc2ccc(Br)cn2)c1)NC(=O)[C@H]1CC[C@H](CN)CC1 (stereo partly drawn) [Compound 26] | > 1000 | 400 | > 1000 | > 1 | > 150 | > 1000 |  |  |
| NC[C@H]1CC[C@H](C(=O)NC(Cc2cccc(Oc3ccc(Br)cn3)c2)C(=O)N2CCOCC2)CC1 (stereo partly drawn) [Compound 27] | > 1000 | 440 | > 1000 | > 1 | > 150 | 280 |  |  |
